The subject of series [1] is Notch signaling (target gene Hes1). Description: Notch inhibition: Hes1 mRNA by real-time qPCR in 3T3-L1 preadipocytes. The format is cell-based. The following applies: for mRNA expression of Hes1: 3T3-L1 preadipocytes, 1 μM, 12 h, real-time qPCR; for dose dependence of the inhibitory effect on Hes1 expression: 0.5, 1 and 10 μM. On the procedure: (§1) Cell culture and drug treatment. 3T3-L1 preadipocytes were cultured in Dulbecco's modified Eagle medium (DMEM) supplemented with 10% fetal bovine serum (FBS) and 1% antibiotics (penicillin and streptomycin) at 37° C., 5% CO2, and 95% relative humidity. The medium was routinely changed every two days and cells were separated by trypsin before reaching confluency. Beige adipocyte differentiation was induced by treating confluent preadipocytes with the adipogenic induction medium containing DMEM, 10% FBS, 0.5 mM isobutylmethylxanthine, 1 μM dexamethasone, 1.75 μM insulin, and 1 μM rosiglitazone. Three days after induction, medium was switched to the differentiation medium containing DMEM, 10% FBS, 850 nM insulin, and 10 nM triiodothyronine until adipocytes matured. For the drug treatment, a series of GSIs were added to the cells in culture medium at the same final drug concentrations of 0.5, 1, and 10 μM, respectively, and cells were induced for differentiation.
(§2) RNA extraction, cDNA synthesis, and real-time qPCR. Total RNA was extracted from cells using TRIzol (Thermo Fisher Scientific, Waltham, Mass., USA) in accordance with the manufacturer's protocol. RNA was treated with RNase-free DNase I to remove contaminating genomic DNA and the purity as well as concentration of extracted RNA were determined by a spectrophotometer NanoDrop 2000c (Thermo Fisher Scientific, Waltham, Mass., USA). Subsequently, 2 μg of RNA was reverse transcribed to cDNA using random hexamer primers with M-MLV reverse transcriptase (Invitrogen, Carlsbad, Calif., USA). Real-time qPCR was performed in the Roche Light Cycler 480 PCR system (Roche, Basel, Switzerland) with SYBR Green master mix.
(§3) The 2^−ΔΔCT method was used to analyze the relative changes of gene expression after normalization to the expression of β-Actin.
To determine the impact of GSIs on inhibition of Notch signaling, 3T3-L1 preadipocytes were treated with a series of GSIs (see Table 1) at a concentration of 1 μM and the change in mRNA expression of Hes1, a Notch downstream transcriptional target gene, was evaluated using real-time qPCR.
To further examine the relationship between drug concentration and inhibitory effect of GSIs, cells were treated with the four most promising inhibitors (i.e., RO4929097, PF-03084014, LY3039478, and BMS-906024) at three gradient concentrations (0.5, 1, and 10 μM).
Effect of RO4929097-PLGA NPs on the Notch signaling target gene. 3T3-L1 preadipocytes were treated with DMSO, PLGA NPs (0.1 mg/mL), DBZ (10 μM), RO4929097 (1 μM) or RO4929097-PLGA NPs (0.1 mg/ml) for 12 h at 37° C. in a 5% CO2 incubator. The Notch target Hes1 mRNA expression was analyzed by qRT-PCR (FIG. 8). Each bar is the mean±SEM of 4 to 5 replicates in each group and the data were analyzed by one-way ANOVA followed by Tukey's post hoc comparison test. Asterisks refer to statistical difference between the indicated treatment groups (*p<0.05, **p<0.01, and ***p<0.001).
(In general: Real-time PCR tracks product formation cycle by cycle.)

The next series relates to 3T3-L1 preadipocytes. Description: Cell viability, MTS assay. The conditions noted are these: 0.5, 1 and 10 μM, 12 h. On the procedure: Assessment of cell viability. In vitro cell viability after incubation with various GSIs at three concentrations was determined using an MTS assay, which is based on the mitochondrial conversion of a tetrazolium salt. 3T3-L1 preadipocytes were seeded onto 96-well plates at a density of 1×10^4 cells per well and cultured in 5% CO2 at 37° C. for 48 h. GSIs were then added to the cells in culture medium at the same final drug concentrations of 0.5, 1, and 10 μM, respectively, and cells were further incubated at 37° C. for 12 h. Subsequently, 20 μL of CellTiter 96® AQueous one solution reagent was added to each well in 100 μL of culture medium and incubated at 37° C. in a humidified, 5% CO2 atmosphere for 2 h. The absorbance was measured using a Tecan Spark™ 10M microplate reader (Tecan, Mannedorf, Switzerland) at a wavelength of 490 nm with background subtraction at 680 nm. Cells incubated with 0.1% Triton X-100 and dimethyl sulfoxide (DMSO) in culture medium served as positive and negative controls, respectively.
Effects of GSIs on cell viability. To investigate effects of GSIs on cell viability, 3T3-L1 preadipocytes were treated with GSIs at three gradient concentrations (0.5, 1, and 10 μM) for 12 h.
(Tetrazolium dyes change colour on reduction, which living cells bring about.)

The subject of series [2] is differentiated 3T3-L1 cells. Briefly: mRNA expression of adipogenic, mitochondrial and browning marker genes by real-time qPCR. Format: cell-based. The conditions noted are these: for increase of mRNA expression of Tmem26: 0.5, 1 and 10 μM, highest dose significant versus control. On the procedure:
as §1, §2, §3

Series [3] concerns UCP1, PPARγ, and C/EBPα in differentiated 3T3-L1 cells. Description: Western blot of UCP1, PPARγ and C/EBPα protein. Format: cell-based. The conditions noted are these: for protein expression of UCP1 / decrease of the upregulated UCP1 protein expression: western blot; for decrease of the upregulated UCP1 protein expression: increasing the concentration from 1 to 10 μM. How it is done: as §1
Protein extraction and western blotting. Total protein was extracted from cells using RIPA buffer containing 25 mM Tris-HCl (pH 8.0), 150 mM NaCl, 1 mM EDTA, 0.5% NP-40, 0.5% sodium deoxycholate and 0.1% SDS. Protein concentrations were determined by Pierce BCA Protein Assay Reagent (Pierce Biotechnology, Waltham, Mass., USA). Proteins were separated by SDS-PAGE and transferred to a polyvinylidene fluoride membrane (Millipore, Burlington, Mass., USA). The membrane was then blocked with 5% fat-free milk for 1 h at room temperature and incubated with primary antibodies in 5% milk overnight at 4° C. as well as secondary antibodies for 1 h at room temperature. Primary antibodies, including UCP1 (1:1000 dilution), C/EBPα (1:500 dilution), PPARγ (1:500 dilution), and β-Actin (1:5000 dilution), were used. HRP-conjugated secondary antibodies, including anti-rabbit and anti-mouse IgG, were also used at a dilution of 1:10,000. A luminol reagent for enhanced chemiluminescence detection of western blots (Santa Cruz Biotechnology, Dallas, Tex., USA) was employed and signals were detected with a FluorChem R imaging system (ProteinSimple, San Jose, Calif., USA).
The protein expression of adipogenic markers, such as PPARγ and C/EBPα, was also evaluated.
(In general: A western blot detects proteins with antibodies after separation by electrophoresis.)

For series [4], the system named is Notch (Hes1) in human tumor-derived cells. The following applies: cited from earlier work.
For series [5], the system named is UCP1 in differentiated 3T3-L1 cells. Briefly: UCP1 immunofluorescence staining. The conditions noted are these: 1 μM. The format is cell-based.
Description: Immunofluorescence staining. After washing with phosphate-buffered saline (PBS), cells were fixed with 4% PFA, quenched with glycine (100 mM glycine and 0.1% sodium azide in PBS), and blocked with PBS containing 2% BSA, 5% goat serum, and 0.2% Triton X-100 for 1 h at room temperature. Subsequently, cells were incubated with the UCP1 antibody diluted at 1:500 in the same blocking buffer overnight at 4° C. and the Alexa Fluor® 488 conjugated goat anti-rabbit IgG (1:1000 dilution) for 1 h at room temperature. Nuclei were counterstained with 4′,6-diamidino-2-phenylindole (DAPI, 1 μg/mL), which was premixed with the secondary antibody.
Where [6] appears, read: all the concentrations (0.5, 1, 10 μM).

SMILES strings stand for the structures. Entries after “also recorded” stand apart in the source; their conditions may differ.

Regarding `O=C(O)CC[C@H]1CC[C@@](c2cc(F)ccc2F)(S(=O)(=O)c2ccc(Cl)cc2)CC1` [MK-0752], the “mRNA expression of Hes1” value in series [1] is listed as “did not significantly decrease; also recorded: relatively moderate inhibitory effect”.
As for `CC(C)(C(=O)NCC(F)(F)C(F)(F)F)C(=O)N[C@@H]1C(=O)Nc2ccccc2-c2ccccc21` [RO4929097], in series [1], the “dose dependence of the inhibitory effect on Hes1 expression” value (“dose dependence of the inhibitory effect” for short) is “did not result in a dose-dependent depression” and the “mRNA expression of Hes1” value was “significantly inhibited”. Further, the “cell viability / cytotoxicity” value in the series on 3T3-L1 preadipocytes is listed as “decreased with increasing the drug concentration”. Besides, the “mRNA expression of Cox5B” value in series [2] (setting [6]) is “increased”. Moreover, the “protein expression of UCP1” value in series [3] (1 μM) is given as “significantly upregulated”. In addition, the “protein expression of C/EBPα” value in series [3] (setting [6]) was “significantly upregulated”. Moreover, the “decrease of the upregulated UCP1 protein expression” value in series [3] was “around 50%”. In addition, in series [4], the “concentration above which no further reduction in mRNA level of Hes1” value was over 1 µM, the “concentration above which no further reduction in protein level of Hes1” value was “higher than 0.5 μM” and the “concentration at which dose-dependent inhibition of Notch begins” value was at least 0.1 µM.
Regarding `C[C@H](NC(=O)CCC(F)(F)F)C(=O)N[C@@H]1C(=O)N(CCO)c2ncccc2-c2ccccc21` [LY3039478], in series [1], the “dose dependence of the inhibitory effect” value is recorded as “more significant with increasing the drug concentration” and the “mRNA expression of Hes1” value was “significantly inhibited”. For the same molecule, the “cell viability / cytotoxicity” value in the series with 3T3-L1 preadipocytes is on record as “did not result in any significant cytotoxicity”. For the same molecule, in series [2] (10 μM), the “mRNA expression of Cox5B” value was “Significant upregulation” and the “mRNA expression of Ppargc1α” value is on record as “significant changes”. Moreover, the “increase of mRNA expression of Tmem26” value in series [2] is reported as “in a dose-dependent manner”. Besides, in series [3] (1 μM), the “protein expression of UCP1” value is given as “significant upregulation”. The “protein expression of C/EBPα” value in series [3] (setting [6]) is given as “significantly upregulated”. Besides, in series [3] (high concentration of 10 μM), the “protein expression of UCP1” value was “did not significantly change”.
As to `NC(=O)[C@@H](CCC(F)(F)F)N(Cc1ccc(-c2ncon2)cc1F)S(=O)(=O)c1ccc(Cl)cc1` [BMS-708163], in series [1], the “mRNA expression of Hes1” value is given as “did not significantly decrease; also recorded: relatively moderate inhibitory effect”.
For `CCC[C@H](N[C@H]1CCc2cc(F)cc(F)c2C1)C(=O)Nc1cn(C(C)(C)CNCC(C)(C)C)cn1` [PF-03084014], in series [1], the “dose dependence of the inhibitory effect” value is “more significant with increasing the drug concentration” and the “mRNA expression of Hes1” value was “significantly inhibited”. For the same molecule, in the series on 3T3-L1 preadipocytes, the “cell viability / cytotoxicity” value is reported as “decreased with increasing the drug concentration”. In addition, the “mRNA expression of Cox5B” value in series [2] (1 μM) is “Significant upregulation”. Also, the “mRNA expression of Ppargc1α” value in series [2] (10 μM) is “significant changes”. Moreover, the “increase of mRNA expression of Tmem26” value in series [2] is “in a dose-dependent manner”. The “protein expression of UCP1” value in series [3] (1 μM) is given as “significantly upregulated”. In addition, the “decrease of the upregulated UCP1 protein expression” value in series [3] is reported as “around 50%”.
As for `CC(C)[C@H](O)C(=O)N[C@@H](C)C(=O)N[C@@H]1C(=O)N(C)CCc2ccccc21` [LY450139], the “mRNA expression of Hes1” value in series [1] was “did not significantly decrease”.
Take `CN1C(=O)[C@@H](NC(=O)[C@H](CCC(F)(F)F)[C@H](CCC(F)(F)F)C(N)=O)N=C(c2ccccc2)c2ccccc21` [BMS-906024]: in series [1], the “dose dependence of the inhibitory effect” value was “more significant with increasing the drug concentration” and the “mRNA expression of Hes1” value is on record as “significantly inhibited”. Further, the “increase of mRNA expression of Tmem26” value in series [2] is listed as “in a dose-dependent manner”. In series [3] (1 μM), the “protein expression of C/EBPα” value is “significantly upregulated” and the “protein expression of UCP1” value was “minimal impact”. Moreover, in series [5], the “UCP1 positive adipocytes (UCP1 expression)” value is “minimal efficiency”.

The values above are taken from patent US20230277549A1, “NOTCH SIGNALING INHIBITORS FOR TREATING OBESITY AND METABOLIC DISORDERS” (Purdue Research Foundation, priority 2020, published 2023).
